In the supplement of paper PMC10307832:

Key:
Assay in all cases: relative viability (nuclei count vs DMSO), 5 days (fraction); higher = more cells survive
QS11 + Luminespib = compound: C1CC2=C(C1)C=C(C=C2)OC3=NC(=C4C(=N3)N(C=N4)CC5=CC=C(C=C5)C6=CC=CC=C6)N[C@@H](CC7=CC=CC=C7)CO [QS11] + CCNC(=O)c1noc(-c2cc(C(C)C)c(O)cc2O)c1-c1ccc(CN2CCOCC2)cc1 [Luminespib] (partner 0.01 µM)
In short: (§1)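 Relative viability was taken as the ratio of nuclei in treated wells to nuclei in vehicle wells. Lung cancer cell lines in 1536-well plates received compounds by pin tool one day after seeding, either one drug alone or a fixed anchor-drug dose plus five library-drug doses (not always all listed) in √10 steps. Nuclei were counted on 4× images after 5 days of treatment, and values are medians of duplicate plates.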

[1] = compound: C[As](C)SC[C@H](NC(=O)CC[C@H](N)C(=O)O)C(=O)NCC(=O)O [Darinaparsin] + O=C(CCCCCCC(=O)Nc1ccccc1)NO [Vorinostat] (partner 1 µM)
In short: as §1

AZ628 + OSI-027 = compound: CC1=C(C=C(C=C1)NC(=O)C2=CC(=CC=C2)C(C)(C)C#N)NC3=CC4=C(C=C3)N=CN(C4=O)C [AZ628] + COc1cccc2cc(-c3nc([C@H]4CC[C@H](C(=O)O)CC4)n4ncnc(N)c34)[nH]c12 [OSI-027] (partner 0.5 µM)
In short: as §1

QS11 + Crizotinib = compound: C1CC2=C(C1)C=C(C=C2)OC3=NC(=C4C(=N3)N(C=N4)CC5=CC=C(C=C5)C6=CC=CC=C6)N[C@@H](CC7=CC=CC=C7)CO [QS11] + C[C@@H](Oc1cc(-c2cnn(C3CCNCC3)c2)cnc1N)c1c(Cl)ccc(F)c1Cl [Crizotinib] (partner 1 µM)
In short: as §1

Cell Line	relative viability (QS11 + Luminespib; first compound 0.08 µM)	relative viability (QS11 + Luminespib; first compound 0.253 µM)	relative viability (QS11 + Luminespib; first compound 0.8 µM)	relative viability (QS11 + Luminespib; first compound 2.53 µM)	relative viability (QS11 + Luminespib; first compound 8 µM)	relative viability ([1]; first compound 0.08 µM)	relative viability ([1]; first compound 0.8 µM)	relative viability ([1]; first compound 2.53 µM)	relative viability ([1]; first compound 8 µM)	relative viability (AZ628 + OSI-027; first compound 0.08 µM)	relative viability (AZ628 + OSI-027; first compound 0.253 µM)	relative viability (AZ628 + OSI-027; first compound 0.8 µM)	relative viability (AZ628 + OSI-027; first compound 2.53 µM)	relative viability (AZ628 + OSI-027; first compound 8 µM)	relative viability (QS11 + Crizotinib; first compound 0.08 µM)	relative viability (QS11 + Crizotinib; first compound 0.253 µM)	relative viability (QS11 + Crizotinib; first compound 0.8 µM)	relative viability (QS11 + Crizotinib; first compound 2.53 µM)	relative viability (QS11 + Crizotinib; first compound 8 µM)
NCI-H650	0.758	0.806	0.802	0.654	0.868	0.335	0.408	0.427	0.423	0.664	0.687	0.766	0.689	0.678	0.722	0.726	0.753	0.55	0.607
HOP-62	0.816	1.03	0.828	0.942	0.934	0.765	0.654	0.522	0.819	0.828	0.857	0.831	0.857	0.43	0.853	0.863	0.846	0.703	0.45
LC-2-ad	0.851	0.981	0.857	0.956	1.17	0.805	0.762	0.657	0.829	0.817	0.87	0.779	0.821	0.703	0.468	0.479	0.398	0.443	0.495
EPLC-272H	–	0.269	0.311	0.385	0.284	0.324	0.42	0.422	0.4	0.211	0.258	0.295	0.238	0.171	0.861	0.962	1.03	0.835	1.13
SW 900	0.18	0.197	0.166	0.17	0.178	0.457	–	0.635	0.596	0.61	0.566	0.501	0.345	0.474	–	–	–	–	–
EBC-1	–	–	–	–	–	–	–	–	–	–	–	–	–	–	0.19	0.203	0.206	0.224	0.238
HCC-44	1.08	1.18	0.805	0.937	1.24	1.24	1.12	1.05	1.09	0.453	0.441	0.493	0.374	0.365	0.868	0.729	0.577	0.688	0.519
NCI-H441	0.376	0.286	0.329	0.315	0.328	1.15	0.751	0.847	0.884	0.801	0.558	0.634	0.588	0.492	0.776	0.847	0.621	0.6	0.707
NCI-H1299	–	–	–	–	–	–	–	–	–	–	–	–	–	–	0.998	0.947	0.948	0.892	0.699
A549	–	–	–	–	–	–	–	–	–	–	–	–	–	–	0.791	0.773	0.613	0.483	0.522
NCI-H1395	0.795	0.549	0.762	0.843	0.819	0.813	0.722	0.582	0.589	0.652	0.544	0.625	0.56	0.554	–	–	–	–	–
IA-LM	–	–	–	–	–	0.947	1.07	1.2	0.89	–	–	–	–	–	0.697	0.94	0.675	0.693	0.712
Calu-6	–	–	–	–	–	–	–	–	–	–	–	–	–	–	0.907	0.914	0.728	0.952	0.828
NCI-H1648	–	–	–	–	–	–	0.301	–	0.56	0.254	0.276	0.253	0.255	0.244	–	–	–	–	–
NCI-H1623	0.529	0.705	0.486	0.479	0.503	–	–	–	–	0.452	0.388	0.245	0.36	0.225	–	–	–	–	–
NCI-H1703	–	–	–	–	–	–	–	–	–	–	–	–	–	–	1.08	0.749	0.585	0.73	0.951
HCC-78	–	–	–	–	–	0.487	0.422	0.465	0.43	0.427	0.37	0.391	0.341	0.399	0.326	0.342	0.289	0.325	0.331
NCI-H1793	0.137	0.177	0.171	0.189	0.158	0.653	0.731	–	0.911	0.355	0.226	0.252	0.247	0.193	–	–	–	–	–
NCI-H1563	0.59	0.541	0.513	0.532	0.452	–	–	–	–	0.787	0.726	0.718	0.788	0.792	0.836	0.937	0.925	0.86	0.814
NCI-H1792	0.432	0.417	0.386	0.369	0.409	–	–	–	–	0.735	0.516	0.474	0.428	0.233	–	1.06	0.662	1.11	1.33
HCC-366	–	–	–	–	–	0.454	–	0.339	0.436	0.895	0.63	0.662	0.62	0.209	0.565	0.542	–	0.292	0.324
